Where two headings read alike, the source gives them in different places.
Key:
[1] = log P (n-octanol/water partition coefficient); format: physicochemical; conditions: active ingredient of Example 9
Method: In fact, cannabinoids are highly lipophilic molecules (log P 6-7) with very low water solubility (2-10 µg / ml). The log P is the decimal logarithm of the n-octanol/water partition coefficient. The partition coefficient can be determined experimentally. Values typically refer to room temperature (25° C.). The partition coefficient can also be roughly calculated from the molecular structure.

[2] = Systemic exposure after i.p. and oral application of CBD in mice; format: in vivo; conditions: 20 mg/kg; assuming dose-proportional plasma concentrations
Method: A comparative investigation for systemic exposure after i.p. and oral application of CBD in mice and rats has shown that 120 mg/kg as a single dose leads to a maximum plasma concentration of 14,000 ng/ml in mice (S. Deiana et al. (2012). Plasma and brain pharmacokinetic profile of cannabidiol (CBD), cannabidivarine (CBDV), Delta(9)-tetrahydrocannabivarin (THCV) and cannabigerol (CBG) in rats and mice following oral and intraperitoneal administration and CBD action on obsessive-compulsive behaviour. Psychopharmacology (Berl) 219(3): 859-73).

IL-6 secretion [3] = conditions: conversion of the effective concentration
[4] = mice; 120 mg/kg single dose (Deiana et al. 2012); cited from earlier work
IL-6 secretion [5] = conditions: cellular models, majority of cases (Chen et al. 2016); cited from earlier work
[6] = test system: LPS-induced acute lung injury; conditions: cited from earlier work
[7] = test system: LPS-induced acute lung injury; conditions: mice, 20 mg/kg, cited from earlier work
human mononuclear cells = conditions: nanomolar or micromolar concentrations; cited from earlier work
human neutrophils = conditions: McHugh et al. 2008; cited from earlier work
CD83 = conditions: dendritic cells derived from individuals with HIV infection; cited from earlier work
microglial cells = conditions: 1-16 µmol/l (Wu et al. 2012); cited from earlier work
[8] = test system: chemically induced acute hepatitis; conditions: mice, cited from earlier work
[9] = test system: activated memory T cell line; conditions: 1-5 µmol/l (Kozela et al. 2013), cited from earlier work
[10] = test system: ischemia-reperfusion-induced kidney injury; conditions: mice, cited from earlier work
inflammatory processes = conditions: cited from earlier work
NK, NKT, T and B cells = conditions: healthy rats, cited from earlier work
IL-6 receptor = target: T1, IL-6 receptor (Homo sapiens, UniProt P08887); conditions: patients with rheumatoid arthritis and systemic juvenile idiopathic arthritis; cited from earlier work
T1 sequence (P08887 20-468): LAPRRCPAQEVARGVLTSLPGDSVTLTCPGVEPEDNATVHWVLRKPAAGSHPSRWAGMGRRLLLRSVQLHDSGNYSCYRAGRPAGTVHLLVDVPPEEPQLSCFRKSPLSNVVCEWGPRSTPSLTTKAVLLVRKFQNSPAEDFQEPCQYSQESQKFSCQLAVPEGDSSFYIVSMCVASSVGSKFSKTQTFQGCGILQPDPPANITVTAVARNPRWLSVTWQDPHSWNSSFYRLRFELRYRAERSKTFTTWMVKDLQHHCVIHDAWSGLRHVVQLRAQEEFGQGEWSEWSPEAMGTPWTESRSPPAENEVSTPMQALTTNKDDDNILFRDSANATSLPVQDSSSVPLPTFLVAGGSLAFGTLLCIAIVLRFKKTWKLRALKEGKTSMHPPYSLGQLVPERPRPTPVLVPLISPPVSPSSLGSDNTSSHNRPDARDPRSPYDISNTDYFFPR

[11] = mice, 0.3-80 mg/kg i.p. 60 minutes before LPS (Ribeiro et al. 2012)

C=C(C)[C@@H]1CCC(C)=C[C@H]1c1c(O)cc(CCCCC)cc1O [CBD, 2-[(1R,6R)-3-methyl-6-(1-methylethenyl)-2-cyclohexen-1-yl]-5-pentyl-1,3-benzenediol]
logP [1]: ~6.1 | target peak exposure [2]: 2,300 ng/ml | resulting concentration (5 µM converted with molecular weight 314.5 g/mol) (IL-6 secretion [3]): 1,570 ng/ml | maximum plasma concentration [4]: 14,000 ng/ml | effective concentration for suppressive effect on IL-6 secretion (IL-6 secretion [5]): ~5 µM | number of leukocytes including macrophages and neutrophils in the bronchoalveolar lavage fluid ([6]; mice, 20 mg/kg, after LPS-induced lung inflammation): decreases | Total leukocytes migration [6, 11]: significantly decreased | myeloperoxidase activity [6, 11]: significantly decreased | pro-inflammatory cytokine production including TNF-a and IL-6 [6, 11]: significantly decreased | vascular permeability [6, 11]: significantly decreased | dose at which effects reached a nearly maximum extent ([6]; prophylactic application, i.p.): 20 mg/kg | mechanical lung function ([7]; 6 h after LPS (Ribeiro et al. 2014)): improved | leukocyte migration (neutrophil, macrophages and lymphocytes) into the lungs ([7]; 6 h after LPS): decreased | myeloperoxidase activity in the lung tissue ([7]; 6 h after LPS): decreased | production of proinflammatory cytokines/chemokines ([7]; 6 h after LPS): reduced | vascular permeability ([7]; 6 h after LPS): reduced | release of pro-inflammatory cytokines (human mononuclear cells): suppressed | migration of human neutrophils (human neutrophils): inhibits | CD83 dendritic cell activation marker (CD83): suppresses | apoptosis in microglial cells (microglial cells): induces apoptosis | expression of MDSCs ([8]; 25 mg/kg (Hegde et al. 2011)): induces the expression of MDSCs | pro-inflammatory cytokines such as IL-2, TNF-α and IL-6 ([8]; 25 mg/kg): reduction | IL-6 production and secretion [9]: decreased | production of IL-10 [9]: increased | autoantigen-specific Th17 cell phenotype (Th17 signature cytokine IL-17) ([9]; dose-dependently): reduces | kidney protection ([10]; 10 mg/kg after induced kidney injury (Baban et al. 2018)): renoprotective | decreased Treg17 and increased Th17 levels ([10]; 10 mg/kg after induced kidney injury): reversed these effects | circulating IL-6 (inflammatory processes; animal models including diabetes, asthma, pancreatitis and hepatitis (Nichols and Kaplan 2020)): suppress | regulatory T cells (Tregs) (inflammatory processes; several disease models (Nichols and Kaplan 2020)): induce regulatory T cells (Tregs) | numbers of natural killer (NK) cells and natural killer T (NKT) cells (NK, NKT, T and B cells; 2.5 mg/kg per day): increased | numbers of natural killer (NK) cells and natural killer T (NKT) cells (NK, NKT, T and B cells; 5 mg/kg per day): not affected | number of B cells (NK, NKT, T and B cells; daily 5 mg/kg): significantly reduced | number of T cells including T helper cells and cytotoxic T cells (NK, NKT, T and B cells; daily 5 mg/kg): significantly reduced

tocilizumab: a humanized anti-IL-6 receptor antibody
efficacy (IL-6 receptor): verified its efficacy | safety (IL-6 receptor): tolerable safety

Source: patent US20230172873A1, “Uses and Formulations of Cannabinoids” (priority 2020, published 2023)
